Here are results for seven compounds from ChEMBL document CHEMBL1201862, “PubChem BioAssay data set” (2004).

Counter-ions that a name gives are not always drawn.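 Each compound was tested at five concentrations against cells in 96-well plates for 48 hours. GI50 is the concentration that inhibits growth by half.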 Active and inactive are the calls of the source. Cut-off read from the data, not from the text of the source: active = GI50 up to about 1.1 µM and inactive = higher.

Common to all, as to assay: NCI anticancer screen, dose series, 48 h
Experiment [1] concerns HCC 2998.
The subject of experiment [2] is SK-MEL-5.
For experiment [3], the system named is HL-60.
The test system of experiment [4] is U-251.
Experiment [5] deals with PC-3.
For experiment [6], the system named is MCF7.
Experiment [7] deals with IGROV-1.
Experiment [8] deals with DU-145.
Experiment [9] concerns NCI-H460.
In experiment [10] the test system is A549.
For experiment [11], the system named is NCI/ADR-RES.
Experiment [12] concerns RPMI-8226.
Experiment [13] has as its system UO-31.
Experiment [14] relates to SF-268.
Experiment [15] relates to SW-620.
Experiment [16] deals with T47D.
The test system of experiment [17] is SF-295.
For experiment [18], the system named is NCI-H226.
For experiment [19], the system named is LOX IMVI.
Experiment [20] has as its system SN12C.

For the compound `CCCCCCC(C)c1ccc2c(c1)C(=O)c1nc3ccncc3c(=O)n1-2` (stereo not given), the GI50 in experiment [1] was 3.94 µM (inactive); in [2] it was 1.42 µM (inactive); in experiment [3] it was 0.26 µM (active); in experiment [4], 4.26 µM (inactive); in experiment [5], 3.54 µM (inactive); in experiment [6], 5.06 µM (inactive). Moreover, the GI50 was 2.51 µM (inactive) in experiment [7]; 14.6 µM (inactive) in experiment [8]; 2.07 µM (inactive) in experiment [9]; 5.65 µM (inactive) in experiment [10]; 5.68 µM (inactive) in experiment [11]; 1.15 µM (inactive) in experiment [12]. In addition, the GI50 was 2.17 µM (inactive) in [13]; 36.2 µM (inactive) in experiment [14]; 2.61 µM (inactive) in experiment [15]; 3.63 µM (inactive) in experiment [16]; 6.38 µM (inactive) in [17]; 4.16 µM (inactive) in experiment [18]. In addition, the GI50 in experiment [19] was 1.06 µM (active); in experiment [20], 4.33 µM (inactive).
As for `c1csc(-c2nnc(C34CC5CC(CC(C5)C3)C4)o2)c1`, the GI50 in experiment [1] is 35.4 µM (inactive); in experiment [2], 17.1 µM (inactive); in [3], 15.1 µM (inactive); in experiment [4] it was 39.6 µM (inactive); in experiment [5] it was 28 µM (inactive); in experiment [6] it was < 0.01 µM (active). Also, the GI50 in experiment [7] is 31.9 µM (inactive); in experiment [8], 44.2 µM (inactive); in experiment [9], 39.9 µM (inactive); in [10], 39.4 µM (inactive); in experiment [11] it was 21.7 µM (inactive); in experiment [12], 36.2 µM (inactive). Moreover, the GI50 in experiment [13] is 3.96 µM (inactive); in experiment [14], 46.5 µM (inactive); in experiment [15], 45.8 µM (inactive); in experiment [16], 26.9 µM (inactive); in experiment [17], 42.1 µM (inactive); in experiment [18] it was 29.9 µM (inactive). The GI50 was 23.6 µM (inactive) in [19] and 38 µM (inactive) in experiment [20].
As for `N#Cc1ccccc1-c1nc2c3c(c(N)ccc3n1)C(=O)c1ccccc1-2`, the GI50 in experiment [1] is > 100 µM (inactive); in experiment [2] it was 32.1 µM (inactive); in [3], 20 µM (inactive); in experiment [4], 34.6 µM (inactive); in [5], 23.7 µM (inactive); in experiment [6], 17.6 µM (inactive). Also, the GI50 was 8.38 µM (inactive) in experiment [7]; 64.1 µM (inactive) in experiment [8]; > 100 µM (inactive) in experiment [9]; 71.6 µM (inactive) in [10]; > 100 µM (inactive) in [11]; 14.3 µM (inactive) in [12]. For the same compound, the GI50 in experiment [13] is 8.85 µM (inactive); in experiment [14], 51.5 µM (inactive); in experiment [15], 31 µM (inactive); in [16], 6.7 µM (inactive); in experiment [17], 45.1 µM (inactive); in experiment [18], 35.2 µM (inactive). Moreover, the GI50 was 27.9 µM (inactive) in [19] and 60 µM (inactive) in experiment [20].
As to `CCOC(=O)CSc1nnc(C(Sc2nc(-c3ccccc3)c(-c3ccccc3)[nH]2)C(C)C)n1-c1ccccc1` (stereo not given), the GI50 in [1] is 19.2 µM (inactive); in experiment [2], > 10 µM (inactive); in [3] it was 20 µM (inactive); in [4], > 10 µM (inactive); in experiment [5], 28.6 µM (inactive); in experiment [6] it was 34.7 µM (inactive). Moreover, the GI50 in [7] is > 10 µM (inactive); in experiment [8], 39.6 µM (inactive); in experiment [9], 17.5 µM (inactive); in [10] it was 19.2 µM (inactive); in [11], 26.9 µM (inactive); in experiment [12], 33.4 µM (inactive). The GI50 is 17.4 µM (inactive) in experiment [13]; 17.9 µM (inactive) in experiment [14]; 19 µM (inactive) in experiment [15]; 28.3 µM (inactive) in experiment [16]; > 10 µM (inactive) in experiment [17]; 17.1 µM (inactive) in experiment [18]. The GI50 is 13.7 µM (inactive) in experiment [19] and 15.9 µM (inactive) in experiment [20].
On to `NCCCNCCCCNCCCN` [SPERMINE TETRAHYDROCHLORIDE], for which the GI50 in [1] was > 48.5 µM (inactive); in [2], > 57.9 µM (inactive); in experiment [3] it was 4.26 µM (inactive); in experiment [4], > 42 µM (inactive); in [5] it was > 100 µM (inactive); in experiment [6] it was 2.79 µM (inactive). Moreover, the GI50 is 13.2 µM (inactive) in [7]; 10.6 µM (inactive) in [8]; > 100 µM (inactive) in [9]; > 100 µM (inactive) in [10]; 44.6 µM (inactive) in experiment [11]; 0.284 µM (active) in experiment [12]. Besides, the GI50 in experiment [13] is 2.23 µM (inactive); in [14] it was > 42.7 µM (inactive); in [15] it was 3.66 µM (inactive); in experiment [16], 2.36 µM (inactive); in [17], > 100 µM (inactive); in experiment [18], > 100 µM (inactive). Moreover, the GI50 in [19] is 8.11 µM (inactive); in experiment [20] it was 4.41 µM (inactive).
`CCN(Cc1cc(Cl)cc(C)c1O)Cc1c(O)ccc2ccccc12`: the GI50 was 16.8 µM (inactive) in experiment [1]; 14.9 µM (inactive) in experiment [2]; 12 µM (inactive) in experiment [3]; 17.1 µM (inactive) in experiment [4]; 15.5 µM (inactive) in experiment [5]; 19.9 µM (inactive) in experiment [6]. Besides, the GI50 in experiment [7] was 15.3 µM (inactive); in experiment [8], 20.2 µM (inactive); in experiment [9] it was 18.2 µM (inactive); in [10] it was 18.8 µM (inactive); in [11], 14.8 µM (inactive); in [12] it was 17.4 µM (inactive). For the same compound, the GI50 is 16.2 µM (inactive) in [13]; 18.2 µM (inactive) in experiment [14]; 25.4 µM (inactive) in experiment [15]; 16.6 µM (inactive) in [16]; 16.9 µM (inactive) in [17]; 19.1 µM (inactive) in experiment [18]. The GI50 in experiment [19] and in experiment [20] was 18.2 µM (inactive) throughout.
Turning to `CC(C)(C)N1C(=O)c2ccccc2C1(O)C(F)(F)F` (stereo not given), the GI50 in experiment [1] was > 100 µM (inactive); in [2], > 100 µM (inactive); in experiment [3], > 100 µM (inactive); in [4] it was > 100 µM (inactive); in experiment [5] it was 60.1 µM (inactive); in experiment [6], > 100 µM (inactive). Moreover, the GI50 in experiment [7] was 74 µM (inactive); in experiment [8] it was > 100 µM (inactive); in experiment [9], > 100 µM (inactive); in experiment [10], > 100 µM (inactive); in experiment [11], > 100 µM (inactive); in experiment [12] it was 76.6 µM (inactive). The GI50 in experiment [13] is > 100 µM (inactive); in experiment [14], > 100 µM (inactive); in experiment [15] it was > 100 µM (inactive); in experiment [16], 53.6 µM (inactive); in [17], > 100 µM (inactive); in experiment [18], > 100 µM (inactive). The GI50 in experiment [19] and in experiment [20] was > 100 µM (inactive) in each case.
